According to ChEMBL document CHEMBL1140680 (Bioorg Med Chem Lett, 2007):
Values after ≈ are worked out from the molar mass of the structure shown.

Key:
[1] = system: Enterococcus faecalis; test: Antibacterial activity against Enterococcus faecalis MG2 EF1 by micro-broth method; type: functional
[2] = system: Staphylococcus aureus; test: Antibacterial activity against Staphylococcus aureus UC76 SA1 by micro-broth method; type: functional
[3] = system: Moraxella catarrhalis; test: Antibacterial activity against Moraxella catarrhalis BC-3531 by micro-broth method; type: functional
[4] = system: Haemophilus influenzae; test: Antibacterial activity against Heamophilus influenzae HI3542 by microbroth method; type: functional
[5] = system: Streptococcus pyogenes; test: Antibacterial activity against Streptococcus pyogenes C203 SP1-1 by micro-broth method; type: functional
[6] = system: Escherichia coli; test: Inhibition of transcription and translation activity in Escherichia coli by luciferase reporter assay; type: functional, organism-based
[7] = system: Streptococcus pneumoniae; test: Antibacterial activity against Streptococcus pneumoniae SV1 SP3 by micro-broth method; type: functional

SMILES | MIC [1] [µg/mL] | MIC [2] [µg/mL] | MIC [3] [µg/mL] | MIC [4] [µg/mL] | MIC [5] [µg/mL] | IC50 [6] [nM] | MIC [7] [µg/mL]
CC(=O)NC[C@H]1CN(c2cc(F)c3c(c2)CCCc2c(-c4ccco4)n[nH]c2-3)C(=O)O1 | 2 (≈ 4.71 µM) | 2 (≈ 4.71 µM) | 8 (≈ 18.8 µM) | 64 (≈ 151 µM) | 1 (≈ 2.36 µM) | 5700 | 1 (≈ 2.36 µM)
CC(=O)NC[C@H]1CN(c2ccc3c(c2)CCCc2c(-c4ccno4)n[nH]c2-3)C(=O)O1 | 0.125 (≈ 0.307 µM) | 0.25 (≈ 0.614 µM) | 1 (≈ 2.45 µM) | 2 (≈ 4.91 µM) | < 0.06 | 760 | < 0.06
CC(=O)NC[C@H]1CN(c2ccc3c(c2)CCCc2c(-c4cc5ccccc5o4)n[nH]c2-3)C(=O)O1 | 0.5 (≈ 1.1 µM) | 2 (≈ 4.38 µM) | 8 (≈ 17.5 µM) | > 64 | 0.5 (≈ 1.1 µM) | > 31200 | 0.5 (≈ 1.1 µM)
O=C(NC[C@H]1CN(c2ccc3c(c2)CCCc2c(-c4ccno4)n[nH]c2-3)C(=O)O1)C1CC1 | 0.5 (≈ 1.15 µM) | 1 (≈ 2.31 µM) | 1 (≈ 2.31 µM) | 32 (≈ 73.8 µM) | 0.25 (≈ 0.577 µM) | 1300 | 0.25 (≈ 0.577 µM)
CC(=O)NC[C@H]1CN(c2cc(F)c3c(c2)CCCc2cn[nH]c2-3)C(=O)O1 | 2 (≈ 5.58 µM) | 2 (≈ 5.58 µM) | 8 (≈ 22.3 µM) | 8 (≈ 22.3 µM) | 1 (≈ 2.79 µM) | 2100 | 1 (≈ 2.79 µM)
